# From US9976183B2, “Biomarkers for cancers responsive to modulators of HEC1 activity” (TAIVEX THERAPEUTICS CORPORATION, priority 2011, dated 2018)
# Legend:
# Assay type in all cases: cell-based
# [1] = system: MEX-SA/Dx5; assay: Drug sensitivity, MTS assay, drug resistant cell line; conditions: MEX-SA/Dx5, multi-drug resistant uterine sarcoma
# Description: Drug sensitivity: Cell lines were screened for drug sensitivity by treatment with specified drugs 24 hours after seeding in appropriate seeding numbers into 96 well plates containing low glucose DME with 10% FBS. The drug was added to the plate in triplicate wells, and the cells are incubated in drug treated medium for 96 hours before cell viability was determined by MTS assay using CellTiter 96® Aqueous non-radioactive cell proliferation assay system (Promega, Madison, Wis. 53711 USA). The MTS assay was performed according to the manufacturer's instructions. Optical density was measured using a Bio-Tek 340 spectrophotometer (Bio-Tek, Winooski, Vt. 05404) and optical readings were then processed in Excel (Microsoft, Redmond, Wash. 98052-7329) and GraphPad Prism 5 linear regression software (GraphPad Software, La Jolla, Calif. 92037 USA) to determine concentration-response curves for calculating relative GI50s. […] The % growth inhibition of the test drug on cells were calculated as: [1−(Test Value)/(Control Value)]×100; these values were used to plot concentration-response curves, and then analyzed with linear regression software.
# [2] = system: cyclin B1 and cyclin D1 in HeLa; assay: Cyclin B1 and cyclin D1 content by immunoblotting; conditions: different time periods, immunoblot (FIG. 6C)
# Description: (§1) Immunoblots: Cell lysates were by incubation of cells in radioimmunoprecipitation assay (RIPA) buffer (50 mM Tris-HCl, pH7.4, 150 mM NaCl, 1% NP40, 0.25% DOC, 0.1% SDS, 1 mM NaVO4, 1 mM EDTA, 1 ug/ml leupeptin, 1 μg/ml pepstatin) or 2.5× sample buffer (50 mM Tris-HCl, pH6.8, 1% SDS, 2.5% BME, 7.5% Glycerol, Bromophenol blue). Tissue samples were immersed in RIPA buffer, disrupted with a homogenizer, and centrifuged to clarify. Samples were then subjected to SDS-PAGE, blotted onto immunoblotting membranes, and incubated with primary antibodies in 3% BSA-TBST. Horseradish peroxidase—conjugated secondary antibodies were used for protein detection by enhanced chemiluminescence (Millipore, Billerica, Mass. 01821 USA). The following antibodies were used for Western blotting: anti-Rb monoclonal antibody 1F8 (Abcam, Cambridge, Mass. 02139-1517 USA); anti-p53 monoclonal antibody (Santa Cruz Biotechnology, Santa Cruz, Calif. 95060 USA); anti-β-actin monoclonal antibody AC-15 (Sigma Aldrich, St. Louis, Mo., USA).
# (§2) To investigate this possibility, drug-responsive (HeLa, MDA-MB-468, HCT116) and resistant cells (A549) were synchronized by starvation and expression of Hec1 and Nek2 characterized at 1(G1), 27(G27), 32(G32), and 48(G48) hours. Differential expression patterns between Hec1 and Nek2 are apparent, indicating differences in regulation of Hec1/Nek2 pathways (FIG. 6A). […]
# [3] = system: PCL/PRF/5; assay: Synergy of Hec1 inhibitor with cytotoxic drug (combination index, MTS); design: key: CI = (CA,X/ICx,A)+(CB,X/ICx,B) at x% drug effect
# Description: (§3) Synergy: GI50s for selected drugs were determined and used to calculate a concentration ratio for use synergy assays with Hec1 inhibitors. Cells were treated with drugs 24 hours after being seeded in appropriate seeding numbers into 96 well plates containing low glucose DME with 10% FBS. […] Cell viability was determined by MTS assay using a CellTiter 96® Aqueous non-radioactive cell proliferation assay system (Promega, Madison, Wis. 53711 USA) according to the manufacturer's instructions. Optical density was determined using a Bio-Tek 340 spectrophotometer (Bio-Tek, Winooski, Vt. 05404) and were then processed using Excel (Microsoft, Redmond, Wash. 98052-7329) and GraphPad Prism 5 linear regression software (GraphPad Software, La Jolla, Calif. 92037 USA) to determine concentration-response curves for calculating relative GI50s. Synergy was determined by calculating a combination index value using the formula CI (combination index)=(CA,X/ICx,A)+(CB,X/ICx,B), where CA,X and CB,X are the concentrations of drug A and drug B used in combination to achieve x % drug effect. ICx,A and ICx,B are the concentrations for single agents to achieve the same effect.
# (§4) Hec1 inhibitor-responsive cancer cells used for screening were treated with a mixture of Hec1 inhibitor and select anti-cancer drug at appropriate concentration ratios and evaluated for cell viability.
# [4] = system: HepG2; assay: as above; design: key: CI = (CA,X/ICx,A)+(CB,X/ICx,B) at x% drug effect
# Description: as §3, §4
# [5] = system: Nek2 in resistant cell line (A549); assay: Nek2 expression by immunoblotting; conditions: A549, 48 hours, immunoblot (FIG. 6B)
# Description: as §1, §2
# [6] = system: Nek2 in sensitive cell lines (HeLa, HCT116); assay: Nek2 expression by immunoblotting; conditions: 48 hours, immunoblot (FIG. 6B)
# Description: as §1, §2
# [7] = in combination with doxorubicin
Compound,GI50 [1],Cyclin B1 and cyclin D1 levels [2],Combination Index ([3]; in combination with KX01),Combination Index ([3]; in combination with Taxol),"Combination Index [3, 7]",Combination Index ([3]; in combination with sorafenib),Combination Index ([3]; in combination with topotecan),Combination Index ([4]; in combination with KX01),"Combination Index [4, 7]",Combination Index ([4]; in combination with sorafenib),Combination Index ([4]; in combination with topotecan),Nek2 expression [5],Nek2 expression [6]
"COc1ccc(Oc2cc(C)c(-c3csc(NC(=O)c4ccncc4)n3)c(C)c2)cc1 [compound 101001, N-(4-(4-(4-methoxyphenoxy)-2,6-dimethylphenyl)thiazol-2-yl)isonicotinamide]",34.9 nM,,,,,,,,,,,,
"COCCOc1cnc(Sc2cc(C)c(-c3csc(NC(=O)c4ccncc4)n3)c(C)c2)cn1 [compound 110095, N-(4-(4-(5-(2-methoxyethoxy)pyrazin-2-ylthio)-2,6-dimethylphenyl)thiazol-2-yl)isonicotinamide]",,down regulated,1.08,0.81,2.31,1.41,2.83,2.32,3.00,1.88,3.03,this effect is not seen,degradation of Nek2
